According to patent US9402846B2, “Combination of inhibitor of B-Raf and inhibitor of AKT in the treatment of cancer” (Novartis AG, priority 2009, dated 2016):

Tests used:
Format in all cases: cell-based
[1] = system: 12R8-1; assay: Cell growth inhibition assay (Cell Titer Glo, 3 days); conditions: Homo sapiens; 12R8-1, melanoma, Compound A resistant clone; BRAF_V600E, KRAS WT; mean ± std; read-out: IC50 Single Agent
Protocol: (§1) Human colon tumor lines, Colo205, DLD1, HCC2998, HCT15, HCT8, HT29, KM-12, LS1034, LS174T, NCI-H508, RKO, SW1417, SW1463, SW480, SW837 and T84, and human melanoma line A375 were from ATCC. A375PF11 was derived from A375, 12R5-1, 12R5-3, 12R8-1, 12R8-3, 16R5-2, 16R6-3 and 16R6-4 are single cell clones derived from mixed populations of A375PF11 cells that were selected to grow in Compound A to concentrations of 1200 and 1600 nM. All lines were cultured in RPMI 1640 medium containing 10% fetal bovine serum (FBS).
(§2) All cells were cultured for a minimum of 72 hours prior to cell plating. Cells were assayed in a 96-well tissue culture plate (NUNC 136102) of RPMI medium containing 10% FBS for all cells at 1,000 cells per well. Approximately 24 hours after plating, cells were exposed to ten, three-fold serial dilutions of compound or the combination of the two agents at a constant molar to molar ratio of 1:10 Compound A to Compound B in RPMI media containing 10% FBS. Cells were incubated in the presence of compounds for 3 days. ATP levels were determined by adding Cell Titer Glo® (Promega) according to the manufacturer's protocol. Briefly, Cell Titer Glo® was added each plate, incubated for 30 minutes then luminescent signal was read on the SpectraMax L plate reader with a 0.5 sec integration time.
(§3) Inhibition of cell growth was estimated after treatment with compound or combination of compounds for three days and comparing the signal to cells treated with vehicle (DMSO). Cell growth was calculated relative to vehicle (DMSO) treated control wells.
(§4) Combination effects on potency were evaluated using Combination Index (CI) which was calculated with the back-interpolated IC50 values and the mutually non-exclusive equation derived by Chou and Talalay (1): CI=Da/IC50(a)+Db/IC50(b)+(Da×Db)/(IC50(a)×IC50(b))
(§5) In general, a CI value <0.9, between 0.9 and 1.1, or >1.1 indicates synergy, additivity and antagonism, respectively. In general, the smaller the CI number, the greater is the strength of synergy.
(§6) The combination effects on the response scale were quantified by Excess Over Highest Single Agent (EOHSA) based on the concept of nonlinear blending as described in detail by Peterson and Novick (2007) and Peterson (2010) [(2;3) [Peterson and Novick, 2007; Peterson, 2010]. EOHSA values are defined as increases in improvement (here, in ‘percentage points’ (ppts) difference) produced by the combination over the best single agent at its component dose level for the combination. For single agent and combination treatments, cells were exposed to compounds at a fixed-dose-ratio, and dose response curves were fit to the experimental data and analyzed using regression models. At specified total dose levels of IC50 along the dose response curve, the dose combination (corresponding to IC50) was determined for making EOHSA statistical inferences.

[2] = system: 12R5-1; assay: as above; conditions: Homo sapiens; 12R5-1, melanoma, Compound A resistant clone; BRAF_V600E, KRAS WT; mean ± std; read-out: IC50 Single Agent
Protocol: as §1, §2, §3, §4, §5, §6

[3] = system: SW1417; assay: as above; conditions: Homo sapiens; SW1417, colon; BRAF V600E, KRAS WT, PIK3CA WT; mean ± std; read-out: IC50 Single Agent
Protocol: as §1, §2, §3, §4, §5, §6

[4] = system: KM-12; assay: as above; conditions: Homo sapiens, KM12; KM-12, colon; BRAF WT, KRAS WT, PIK3CA WT; mean ± std; read-out: IC50 Single Agent
Protocol: as §1, §2, §3, §4, §5, §6

[5] = system: 16R5-2; assay: as above; conditions: Homo sapiens; 16R5-2, melanoma, Compound A resistant clone; BRAF_V600E, KRAS WT; mean ± std; read-out: IC50 Single Agent
Protocol: as §1, §2, §3, §4, §5, §6

[6] = system: HT29; assay: as above; conditions: Homo sapiens, HT-29; HT29, colon; BRAF V600E, KRAS WT, PIK3CA P449T; mean ± std; read-out: IC50 Single Agent
Protocol: as §1, §2, §3, §4, §5, §6

[7] = system: 12 colon lines without BRAF V600E mutation; assay: Cell growth inhibition assay (Cell Titer Glo, 3 days), summary over lines; conditions: Homo sapiens; the other 12 colon lines without BRAF V600E mutation; single agent
Protocol: (§7) Human colon tumor lines, Colo205, DLD1, HCC2998, HCT15, HCT8, HT29, KM-12, LS1034, LS174T, NCI-H508, RKO, SW1417, SW1463, SW480, SW837 and T84, and human melanoma line A375 were from ATCC.
(§8) All cells were cultured for a minimum of 72 hours prior to cell plating. […] Cells were incubated in the presence of compounds for 3 days. ATP levels were determined by adding Cell Titer Glo® (Promega) according to the manufacturer's protocol. Briefly, Cell Titer Glo® was added each plate, incubated for 30 minutes then luminescent signal was read on the SpectraMax L plate reader with a 0.5 sec integration time.
as §3, §4, §5
as §6, with “EOHSA” for “The combination effects on the response scale were quantified by Excess Over Highest Single Agent (EOHSA) based on the concept of nonlinear blending as described in detail by Peterson and Novick (2007) and Peterson (2010) [(2;3) [Peterson and Novick, 2007; Peterson, 2010]. EOHSA”

[8] = system: four colon cell lines with BRAF V600E mutation; assay: as above; conditions: Homo sapiens; span over the four colon cell lines with BRAF V600E mutation; single agent
Protocol: as §7, §8, §3, §4, §5
as §6, with “EOHSA” for “The combination effects on the response scale were quantified by Excess Over Highest Single Agent (EOHSA) based on the concept of nonlinear blending as described in detail by Peterson and Novick (2007) and Peterson (2010) [(2;3) [Peterson and Novick, 2007; Peterson, 2010]. EOHSA”

[9] = system: T84; assay: Cell growth inhibition assay (Cell Titer Glo, 3 days); conditions: Homo sapiens; T84, colon; BRAF WT, KRAS G13D, PIK3CA E542K; mean ± std; read-out: IC50 Single Agent
Protocol: as §1, §2
(§9) Inhibition of cell growth was estimated after treatment with compound or combination of compounds for three days and comparing the signal to cells treated with vehicle (DMSO). Cell growth was calculated relative to vehicle (DMSO) treated control wells. […]

[10] = system: Colo205; assay: as above; conditions: Homo sapiens, COLO 205; Colo205, colon; BRAF V600E, KRAS WT, PIK3CA WT; mean ± std; read-out: IC50 Single Agent
Protocol: as §1, §2, §9

[11] = system: A375PF11; assay: as above; conditions: Homo sapiens, A375P-F11, melanoma, BRAF_V600E, KRAS WT, mean ± std, read-out: IC50 Single Agent
Protocol: as §1, §2, §9

[12] = system: LS174T; assay: as above; conditions: Homo sapiens, colon, BRAF WT, KRAS G12D, PIK3CA H1047R, mean ± std, read-out: IC50 Single Agent
Protocol: as §1, §2, §9

[13] = system: 16R6-3; assay: as above; conditions: Homo sapiens; 16R6-3, melanoma, Compound A resistant clone; BRAF_V600E, KRAS WT; mean ± std; read-out: IC50 Single Agent
Protocol: as §1, §2, §9

[14] = system: 12R8-3; assay: as above; conditions: Homo sapiens; 12R8-3, melanoma, Compound A resistant clone; BRAF_V600E, KRAS WT; mean ± std; read-out: IC50 Single Agent
Protocol: as §1, §2, §9

[15] = system: NCI-H508; assay: as above; conditions: Homo sapiens, NCl-H508, colon, BRAF G596R, KRAS WT, PIK3CA E545K, mean ± std, read-out: IC50 Single Agent
Protocol: as §1, §2, §9

[16] = system: DLD1; assay: as above; conditions: Homo sapiens, DLD-1; DLD1, colon; BRAF WT, KRAS G13D, PIK3CA E545K, D549N; mean ± std; read-out: IC50 Single Agent
Protocol: as §1, §2, §9

[17] = system: HCC2998; assay: as above; conditions: Homo sapiens, HCC 2998; HCC2998, colon; BRAF WT, KRAS A146T, PIK3CA WT; mean ± std; read-out: IC50 Single Agent
Protocol: as §1, §2, §9

[18] = system: SW837; assay: as above; conditions: Homo sapiens; SW837, colon; BRAF WT, KRAS G12C, PIK3CA WT; mean ± std; read-out: IC50 Single Agent
Protocol: as §1, §2, §9

[19] = system: HCT15; assay: as above; conditions: Homo sapiens, HCT-15; HCT15, colon; BRAF WT, KRAS G13D, PIK3CA D549N, E545K; mean ± std; read-out: IC50 Single Agent
Protocol: as §1, §2, §9

[20] = system: SW1463; assay: as above; conditions: Homo sapiens; SW1463, colon; BRAF WT, KRAS G12C, PIK3CA WT; mean ± std; read-out: IC50 Single Agent
Protocol: as §1, §2, §9

[21] = system: HCT8; assay: as above; conditions: Homo sapiens, HCT-8; HCT8, colon; BRAF WT, KRAS G13D, PIK3CA E545K; mean ± std; read-out: IC50 Single Agent
Protocol: as §1, §2, §9

[22] = system: 12R5-3; assay: as above; conditions: Homo sapiens; 12R5-3, melanoma, Compound A resistant clone; BRAF_V600E, KRAS WT; mean ± std; read-out: IC50 Single Agent
Protocol: as §1, §2, §9

[23] = system: SW480; assay: as above; conditions: Homo sapiens; SW480, colon; BRAF WT, KRAS G12C, PIK3CA WT; mean ± std; read-out: IC50 Single Agent
Protocol: as §1, §2, §9

[24] = system: LS1034; assay: as above; conditions: Homo sapiens, LS-1034; LS1034, colon; BRAF WT, KRAS A146T, PIK3CA WT; mean ± std; read-out: IC50 Single Agent
Protocol: as §1, §2, §9

[25] = system: RKO; assay: as above; conditions: Homo sapiens, colon, BRAF V600E, KRAS WT, PIK3CA H1047R, mean ± std, read-out: IC50 Single Agent
Protocol: as §1, §2, §9

[26] = system: 16R6-4; assay: as above; conditions: Homo sapiens; 16R6-4, melanoma, Compound A resistant clone; BRAF_V600E, KRAS WT; mean ± std; read-out: IC50 Single Agent
Protocol: as §1, §2, §9

[27] = system: seven Compound A resistant clones derived from the A375PF11 melanoma cell line; assay: Cell growth inhibition assay (Cell Titer Glo, 3 days), summary over clones; conditions: Homo sapiens, A375P-F11; seven Compound A resistant clones (12R8-3, 12R8-1, 12R5-3, 16R5-2, 16R6-3, 16R6-4, 12R5-1); single agent
Protocol: as §1
All cells were cultured for a minimum of 72 hours prior to cell plating. […] ATP levels were determined by adding Cell Titer Glo® (Promega) according to the manufacturer's protocol. Briefly, Cell Titer Glo® was added each plate, incubated for 30 minutes then luminescent signal was read on the SpectraMax L plate reader with a 0.5 sec integration time.
as §3
Combination effects on potency were evaluated using Combination Index (CI) which was calculated with the back-interpolated IC50 values and the mutually non-exclusive equation derived by Chou and Talalay (1): CI=Da/IC50(a)+Db/IC50(b)+(Da×Db)/(IC50(a)×IC50(b)) […]

| Compound | IC50 [1] [µM] | IC50 [2] [µM] | IC50 [3] [µM] | IC50 [4] [µM] | IC50 [5] [µM] | IC50 [6] [µM] | IC50 [8] [µM] | IC50 [9] [µM] | IC50 [10] [µM] | IC50 [11] [µM] | IC50 [12] [µM] | IC50 [13] [µM] | IC50 [14] [µM] | IC50 [15] [µM] | IC50 [16] [µM] | IC50 [18] [µM] | IC50 [19] [µM] | IC50 [20] [µM] | IC50 [21] [µM] | IC50 [22] [µM] | also measured |
| --- | --- | --- | --- | --- | --- | --- | --- | --- | --- | --- | --- | --- | --- | --- | --- | --- | --- | --- | --- | --- | --- |
| CC(C)(C)c1nc(-c2cccc(NS(=O)(=O)c3c(F)cccc3F)c2F)c(-c2ccnc(N)n2)s1 [Compound A, N-{3-[5-(2-Amino-4-pyrimidinyl)-2-(1,1-dimethylethyl)-1,3-thiazol-4-yl]-2-fluorophenyl}-2,6-difluorobenzenesulfonamide] | > 10 | > 10 | 0.101 ± 0.031 | > 10 | > 10 | 0.028 ± 0.007 | 0.018 to 3.32 | > 10 | 0.018 ± 0.003 | 0.063 | > 10 | > 10 | > 10 | > 10 | > 10 | 5.44 ± 7.69 | > 10 | > 10 | > 10 | > 10 | IC50 [7]: > 5 µM; IC50 [17]: > 10 µM; IC50 [23]: > 10 µM; IC50 [24]: > 10 µM; IC50 [25]: 3.14 ± 3.47 µM; IC50 [26]: > 10 µM |
| Cn1ncc(Cl)c1-c1cc(C(=O)N[C@H](CN)Cc2ccc(F)c(F)c2)oc1Cl [Compound B, N-{(1S)-2-amino-1-[(3,4-difluorophenyl)methyl]ethyl}-5-chloro-4-(4-chloro-1-methyl-1H-pyrazol-5-yl)-2-furancarboxamide] | > 10 | > 10 | 2.59 ± 1.76 | 1.41 ± 0.961 | 7.05 ± 1.33 | 0.503 ± 0.073 | 0.29 to 2.59 | > 10 | 0.908 ± 0.605 | > 10 | 3.75 ± 0.945 | > 10 | > 10 | 0.234 ± 0.247 | > 10 | > 10 | 4.21 ± 0.834 | 5.23 ± 7.4 | 0.527 ± 0.036 | > 10 | IC50 [27]: ≥ 7 µM; IC50 [23]: 5.62 ± 1.85 µM; IC50 [24]: 6.39 ± 3.55 µM; IC50 [25]: 0.29 ± 0.07 µM; IC50 [26]: > 10 µM |
